Several values for one entry are separate records, joined by “and”; a condition that tells them apart may be missing. Equal values may be shown once.

In assay [1] the target is T1, human Kir2.1 (Homo sapiens, UniProt P63252).
T1 construct: expressed in transfected cells
T1 sequence (P63252 1-427): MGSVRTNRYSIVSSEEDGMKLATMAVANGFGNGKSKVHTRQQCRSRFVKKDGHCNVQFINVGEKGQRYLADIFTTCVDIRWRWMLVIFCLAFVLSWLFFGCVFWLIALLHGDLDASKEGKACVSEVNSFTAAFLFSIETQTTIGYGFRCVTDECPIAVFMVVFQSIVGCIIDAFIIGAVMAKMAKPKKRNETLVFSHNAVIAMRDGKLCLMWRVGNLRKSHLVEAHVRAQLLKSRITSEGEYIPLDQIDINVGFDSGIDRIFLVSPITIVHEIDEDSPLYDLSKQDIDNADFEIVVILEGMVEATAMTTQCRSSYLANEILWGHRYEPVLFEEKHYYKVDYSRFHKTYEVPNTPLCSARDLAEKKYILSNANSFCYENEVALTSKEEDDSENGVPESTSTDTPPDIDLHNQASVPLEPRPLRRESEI
The experiment in a line: Kir2.1 thallium flux assay. The assay is classed as cell-based. To be noted: for Emax / Thallium Flux Efficacy (% Inhibition): efficacy from 4PL fit, relative to ML133; for Emax: read-out: Thallium Flux Efficacy (% Inhibition). On the procedure:
Thallium Flux Assay Experimental Conditions
The Tl+ flux assays were conducted as previously described with modifications optimized for Kir2.1 cell line as described below.1
Briefly, stable T-REx-HEK-293 cells expressing human K ir2.1 were cultured in DMEM growth medium (Catalog #11965-092, Gibco, Billings, MT) containing 10% heat-inactivated FBS (Catalog #16140, Gibco), 100 U/mL PenStrep, 5 μg/mL Blasticidin S, and 250 μg/mL Hygromycin.
The day prior to the experiment, cells at ~90% confluency were resuspended in plating media, which consisted of the same components as the growth media, except that heat-inactivated FBS was replaced with dialyzed FBS (Catalog #26400, Gibco). Tetracycline was added to the plating media to achieve a final concentration of 1 μg/ml to induce hKir2.1 expression. Cells were then counted and plated at 15,000 cells/well in black-walled, amine- or PDL- coated, 384-well plates at 20 μl/well (Corning, Corning, NY). On the day of experiment, the media was removed from the cell plate and replaced with 20 μl/well of Tl+-sensitive dye loading solution containing 2.5 μg/ml Thallos-AM (Catalog #11000-050, ION Biosciences, San Marcos, TX) in assay buffer using a Multidrop Combi dispenser (Thermo Fisher Scientific, Walkham, MA). Cell plates loaded with dye solution were incubated for 1 hour at room temperature. Following incubation, the cell plate was washed with HBSS assay buffer containing 20 mM HEPES using a BioTek ELx 405 TS plate washer (Agilent, Santa Clara, CA), leaving 20 μl of assay buffer in each well. The cell plate was then transferred to a Panoptic kinetic imaging plate reader (WaveFront Biosciences, Franklin, TN) for imaging at 1 Hz, 482/35 nm excitation and 536/40 nm emission for 10 seconds. Following this, 20 μl/well of HBSS assay buffer containing test compounds at 2-fold over their final concentrations were added and imaging continued for another eight minutes, after which 10 μl/well of chloride-free Tl+ stimulus solution was added (Catalog #11000-050, ION Biosciences). The final Tl2SO4 concentration in cell plate post-Tl+ stimulus solution addition was 0.25 mM. Images were collected for an additional two minutes. A ten-point concentration series from 30 μM to 2 nM with a 1:3 dilution factor was generated using an Echo liquid handler 650 (Labcyte, San Jose, CA). Final DMSO concentration, 0.3% (v/v) in the assay was constant across all compound concentrations.
The initial slopes of the Tl+-induced fluorescence changes were fit to a four-parameter logistic equation using our in-house software Waveguide to determine potency and efficacy values. […]
Bauer, J. A.; Days, E. L.; Lindsley, C. […]

Assay [2] deals with T1, human Kir2.1. The experiment in a line: Kir2.1 manual patch clamp (MPC) assay. Type of assay: cell-based. To be noted: for Emax / Manual patch clamp Emax: % inhibition of Ba2+-sensitive current at highest tested concentration (3–30 μM); for IC50: pH 7.4, -120 mV, normalized to 2 mM Ba2+ block, top concentration 10 μM (ML133 30 μM, 5t 3 μM). How it is done:
Manual Patch Claim Assay Experimental Conditions
Whole-cell patch-clamp electrophysiology was used to record K ir2.1 currents from a stably transfected monoclonal T-Rex-HEK-293 cell line with a tetracycline-inducible promoter expressing human Kir2.1, as described previously1 cultured in a 5% CO2 incubator at 37°C. Kir2.1 expression was induced by overnight treatment with 1 µg/mL tetracycline. Cells were dissociated using 0.25% Trypsin-EDTA and seeded onto 12 mm circular coverslips (Electron Microscopy Sciences, PA, USA) for same-day whole-cell patch-clamp recordings. Kir2.1 currents were recorded at room temperature using an AxoPatch 200B amplifier with Clampex 10.7 software (Molecular Devices, USA). The voltage-clamp protocol consisted of a 1-s step to -120 mV from a -80 mV holding potential, followed by a 2-s ramp to +40 mV, repeated every 10 s. Data were sampled at 5 kHz and filtered at 1 kHz. Patch pipettes, pulled from 1.5 mm OD thin-walled capillaries (Warner Instruments, MA, USA) using a Sutter P-1000 puller (Sutter Instrument, CA, USA), had resistances of 2–3 MΩ when filled with intracellular solution containing (mM): 135 KCl, 10 HEPES, 1 EGTA, 2 MgCl2, 2 Na2ATP (pH 7.35, adjusted with KOH). The extracellular solution contained (mM): 135 NaCl, 5 KCl, 2 CaCl2, 1 MgCl2, 5 Glucose, 10 HEPES, 10 Sucrose (pH 7.35, adjusted with NaOH). After establishing stable baseline Kir2.1 currents, cells were perfused with compounds at concentrations of 0.03–30 µM until response saturation (within minutes).
Recordings concluded with a 2 mM Ba2+ solution to isolate Ba2+-sensitive currents, with compound responses expressed as fractions of this current. Current amplitudes at the -120 mV step were analyzed using Clampfit 11.2 (Molecular Devices). IC50 values were calculated by fitting the Hill equation to concentration-response curves (CRCs) using variable -slope nonlinear regression in GraphPad Prism 10.4 (GraphPad Software).
MPC experiments for Kir2.2 and Kir2.3 were conducted in an analogous fashion.1
(In general: Patch clamp records ionic current or voltage across a cell membrane.)

Where [3] appears, read: T-REx-HEK-293 cells expressing human Kir2.1, 4PL fit, top concentration 30 μM, read-out: Thallium Flux Potency IC50.

As to `COc1ccc(CNCc2ccc(-c3cccc(C#N)c3)cc2)cc1` [Compound 5t], the IC50 at human Kir2.1 [1] (setting [3]) came to 4.9 µM; at human Kir2.1 [2], 0.48 µM. The Emax came to 100% on human Kir2.1 [1] and 98% at human Kir2.1 [2] (pH 7.4). Further, the “Fold more potent than ML133 in MPC” value on human Kir2.1 [2] (pH 7.4) is recorded as 3–5 fold.

As for `COc1ccc(CNCc2ccc(-c3ccccc3)cc2)cc1` [Compound 5k], the IC50 at human Kir2.1 [1] (setting [3]) was 8.2 µM; at human Kir2.1 [2] it was 1.39 µM. Besides, the Emax on human Kir2.1 [1] worked out at 101%; on human Kir2.1 [2] (pH 7.4), 99%. At human Kir2.1 [2] (pH 7.4), the “MPC potency relative to ML133” value is given as “equipotent”.

`COc1ccc(CNCc2cccc3ccccc23)cc1` [ML133, N-(4-methoxybenzyl)-1-(naphthalen-1-yl)methanamine, reference compound]: the IC50 is 10.1 µM on human Kir2.1 [1] (setting [3]); 10.5 µM on human Kir2.1 [1] (mean ± SEM over 9 experimental plates in triplicate, read-out: Thallium flux pIC50 (converted)); 1.5 µM and 1.51 µM on human Kir2.1 [2]. The Emax at human Kir2.1 [1] came to 101%; at human Kir2.1 [2] (pH 7.4), 99%.

Consider `[2H]C([2H])([2H])Oc1cccc(-c2ccc(CNCc3ccc(OC)cc3)cc2)c1` [Compound 11], for which the “Thallium Flux Efficacy (% Inhibition)” value on human Kir2.1 [1] is 100%. For the same compound, the “Manual patch clamp Emax” value on human Kir2.1 [2] (pH 7.4) was found to be 99%.

In the case of `COc1ccc(CNCc2cccc(-c3ccccc3)c2)cc1` [Compound 5j], the IC50 at human Kir2.1 [1] (setting [3]) is 12.8 µM; against human Kir2.1 [2] it was 0.39 µM. The Emax at human Kir2.1 [1] was 106%; at human Kir2.1 [2] (pH 7.4), 100%. The “Fold more potent than ML133 in MPC” value on human Kir2.1 [2] (pH 7.4) is given as 3–5 fold.

With `[2H]C([2H])([2H])Oc1ccc(CNCc2ccc(-c3cccc(OC)c3)cc2)cc1` [Compound 9], the “Thallium Flux Efficacy (% Inhibition)” value on human Kir2.1 [1] worked out at 100%. Moreover, the “Manual patch clamp Emax” value at human Kir2.1 [2] (pH 7.4) worked out at 99%.

Turning to `COc1ccc(CNCc2ccc3c(c2)OC(F)(F)O3)cc1` [Compound 5h], at human Kir2.1 [1], the “Thallium flux potency relative to ML133” value is “equipotent”. For the same compound, the IC50 on human Kir2.1 [1] (setting [3]) was found to be 11.2 µM; on human Kir2.1 [2] it was 3.03 µM. Moreover, the Emax at human Kir2.1 [1] is 99%; on human Kir2.1 [2] (pH 7.4), 92%.

For the compound `[2H]C([2H])([2H])Oc1ccc(CNCc2ccc(-c3cccc(OC([2H])([2H])[2H])c3)cc2)cc1` [Compound 13], the “Thallium Flux Efficacy (% Inhibition)” value on human Kir2.1 [1] is on record as 100%. The “Manual patch clamp Emax” value on human Kir2.1 [2] (pH 7.4) is recorded as 99%.

In the case of `[2H]C([2H])([2H])Oc1ccc(CNCc2cccc3ccccc23)cc1` [Compound 7], on human Kir2.1 [1], the “Thallium flux potency relative to ML133” value is “equipotent”. Also, the IC50 on human Kir2.1 [1] (setting [3]) stood at 11.1 µM; at human Kir2.1 [2] it was 3.94 µM. Moreover, the Emax on human Kir2.1 [1] came out at 102%; at human Kir2.1 [2] (pH 7.4), 82%.

`COc1ccc(CNCc2ccc(-c3cccc(OC)c3)cc2)cc1` [Compound 5s, 1-(3′-Methoxy-[1,1’-biphenyl]-4-yl)-N-(4-methoxybenzyl)methanamine]: the IC50 is 5.9 µM at human Kir2.1 [1] (setting [3]) and 0.35 µM on human Kir2.1 [2]. The figures for the Emax at human Kir2.1 [1] and on human Kir2.1 [2] (pH 7.4) were 101% and 100%, respectively. Further, the “Fold more potent than ML133 in MPC” value at human Kir2.1 [2] (pH 7.4) was 3–5 fold.

As for `COc1ccc(CNCc2ccc(-c3cccc(F)c3)cc2)cc1` [Compound 5p], the results for the IC50 on human Kir2.1 [1] (setting [3]) and at human Kir2.1 [2] were 8.1 µM and 0.3 µM, respectively. In addition, the Emax on human Kir2.1 [1] amounted to 99%; at human Kir2.1 [2] (pH 7.4), 98%. Besides, the “Fold more potent than ML133 in MPC” value at human Kir2.1 [2] (pH 7.4) is 3–5 fold.

The values are drawn from PMC12434521, “Characterization of Next-Generation Inhibitors for the Inward-Rectifier Potassium Channel Kir2.1: Discovery of VU6080824” (ACS Medicinal Chemistry Letters, 2025).
